From patent publication US20200069691A1, “HETEROCYCLIC COMPOUNDS AS HIV PROTEASE INHIBITORS” (Merck Sharp & Dohme Corp., priority 2016, published 2020)

Each compound was assayed against T1, wild-type HIV-1 protease (Human immunodeficiency virus type 1 group M subtype B, UniProt P04585) (assay: Assay for Inhibition of Microbial Expressed HIV Protease (peptide substrate cleavage, LC-MS/MS readout)). Conditions: E. coli expressed wild-type HIV-1 protease, mean of at least two independent experiments, read-out: HIV Pr Enzyme HIV1 PR IC50.
T1 construct: Escherichia coli expressed wild-type HIV-1 protease protein
Assay type: biochemical
Summary of the method: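 E. coli-expressed wild-type HIV-1 protease ([…]) was preincubated with inhibitor 30 min at room temperature in pH 5.5 acetate buffer (100 mM NaCl, 0.1% BSA). Then 400 μM octapeptide substrate was added and reacted 1 h at 30 °C; inhibition came from LC-MS/MS product peak areas, mean of ≥2 experiments.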

| Structure (SMILES) | IC50 |
| --- | --- |
| N=C1NC(c2ccccc2)(c2ccccc2)C(=O)N1Cc1ccc(Cl)c(C(=O)N2Cc3cccnc3C2)c1 [Compound 368, 3-[4-chloro-3-(5,7-dihydro-6H-pyrrolo[3,4-b]pyridin-6-ylcarbonyl)benzyl]-2-imino-5,5-diphenylimidazolidin-4-one] | 5.42 nM |
| Cc1cc(CN2C(=N)NC(c3ccc(F)cc3)(c3ccc(F)cc3)C2=O)cc(C(=O)N2Cc3nccnc3C2)n1 [Compound 406, 3-{[2-(5,7-dihydro-6H-pyrrolo[3,4-b]pyrazin-6-ylcarbonyl)-6-methylpyridin-4-yl]methyl}-5,5-bis(4-fluorophenyl)-2-iminoimidazolidin-4-one] | 10.6 nM |
| CS(=O)(=O)c1cccc(-c2ncc3c(n2)CN(C(=O)c2cc(CN4C(=N)N[C@](CCCC(F)(F)F)(c5ccc(F)cc5)C4=O)ccc2C(F)(F)F)C3)c1 [Compound 24, (5R)-5-(4-fluorophenyl)-2-imino-3-[3-({2-[3-(methylsulfonyl)phenyl]-5,7-dihydro-6H-pyrrolo[3,4-d]pyrimidin-6-yl}carbonyl)-4-(trifluoromethyl)benzyl]-5-(4,4,4-trifluorobutyl)imidazolidin-4-one] | 2.41 nM |
| CC(C)CC[C@]1(c2ccccc2)NC(=N)N(Cc2ccc(S(C)(=O)=O)c(C(=O)N3Cc4nccnc4C3)c2)C1=O [Compound 126, (5R)-3-[3-(5,7-dihydro-6H-pyrrolo[3,4-b]pyrazin-6-ylcarbonyl)-4-(methylsulfonyl)-benzyl]-2-imino-5-(3-methylbutyl)-5-phenylimidazolidin-4-one] | 60.2 nM |
| CC(C)CC[C@]1(c2ccc(F)cc2)NC(=N)N(C(Cc2ccccc2)c2ccc(C(F)(F)F)c(C(=O)N3Cc4nccnc4C3)c2)C1=O (stereo partly drawn) [Compound 6, (5R)-3-{1-[3-(5,7-dihydro-6H-pyrrolo[3,4-b]pyrazin-6-ylcarbonyl)-4-(trifluoromethyl)-phenyl]-2-phenylethyl}-5-(4-fluorophenyl)-2-imino-5-(3-methylbutyl)imidazolidin-4-one] | 0.26 nM |
| CC(C)C[C@]1(c2ccccc2)NC(=N)N([C@H](C)c2cccc(C(=O)N3Cc4cncnc4C3)c2)C1=O [Compound 261, 3-{(1R)-1-[3-(5,7-dihydro-6H-pyrrolo[3,4-d]pyrimidin-6-ylcarbonyl)phenyl]ethyl}-2-imino-5-(2-methylpropyl)-5-phenylimidazolidin-4-one] | 23.5 nM |
| Cc1cccc(-c2ncc3c(n2)CN(C(=O)c2cc(CN4C(=N)N[C@](CCCC(F)(F)F)(c5ccc(F)cc5)C4=O)ccc2C(F)(F)F)C3)c1 [Compound 104, (5R)-5-(4-fluorophenyl)-2-imino-3-[3-{[2-(3-methylphenyl)-5,7-dihydro-6H-pyrrolo[3,4-d]pyrimidin-6-yl]carbonyl}-4-(trifluoromethyl)benzyl]-5-(4,4,4-trifluorobutyl)imidazolidin-4-one] | 24.2 nM |
| C[S+]([O-])c1cccc(-c2ncc3c(n2)CN(C(=O)c2cc(CN4C(=N)N[C@](CCCC(F)(F)F)(c5ccc(F)cc5)C4=O)ccc2C(F)(F)F)C3)c1 (stereo partly drawn) [Compound 21, (5R)-5-(4-fluorophenyl)-2-imino-3-[3-({2-[3-(methylsulfmyl)phenyl]-5,7-dihydro-6H-pyrrolo[3,4-d]pyrimidin-6-yl}carbonyl)-4-(trifluoromethyl)benzyl]-5-(4,4,4-trifluorobutyl)imidazolidin-4-one] | 2.31 nM |
| CC(C)CCC1(c2cccc(-c3cccnc3)c2)NC(=N)N(Cc2cccc(C(=O)N3Cc4nccnc4C3)c2)C1=O (centres unmarked) [Compound 304, 3-[3-(5,7-dihydro-6H-pyrrolo[3,4-b]pyrazin-6-ylcarbonyl)benzyl]-2-imino-5-(3-methylbutyl)-5-(3-pyridin-3-ylphenyl)imidazolidin-4-one] | 45.9 nM |
| COC(=O)N1CCN(C(=O)c2cccc(CN3C(=N)NC(CCC(C)C)(c4ccc(F)cc4)C3=O)c2)CC1 (centres unmarked) [Compound 239, methyl 4-[(3-{[4-(4-fluorophenyl)-2-imino-4-(3-methylbutyl)-5-oxoimidazolidin-1-yl]methyl}phenyl)carbonyl] piperazine-1-carboxylate] | 15.1 nM |
| Cn1ncc2cc(-c3ncc4c(n3)CN(C(=O)c3cc(CN5C(=N)N[C@](CCCC(F)(F)F)(c6ccc(F)cc6)C5=O)ccc3C(F)(F)F)C4)ccc21 [Compound 43, (5R)-5-(4-fluorophenyl)-2-imino-3-[3-{[2-(1-methyl-1H-indazol-5-yl)-5,7-dihydro-6H-pyrrolo[3,4-d]pyrimidin-6-yl]carbonyl}-4-(trifluoromethyl)benzyl]-5-(4,4,4-trifluorobutyl)imidazolidin-4-one] | 4.47 nM |
| N=C1N[C@](CCCC(F)(F)F)(c2ccc(F)cc2)C(=O)N1Cc1ccc(C(F)(F)F)c(C(=O)N2Cc3cnc(-c4ccccc4)nc3C2)c1 [Compound 94, (5R)-5-(4-fluorophenyl)-2-imino-3-{3-[(2-phenyl-5,7-dihydro-6H-pyrrolo[3,4-d]pyrimidin-6-yl)carbonyl]-4-(trifluoromethyl)-benzyl}-5-(4,4,4-trifluorobutyl)-imidazolidin-4-one] | 19.2 nM |
| N=C1NC(c2ccc(F)cc2)(c2ccc(F)cc2)C(=O)N1Cc1cccc(C(=O)N2Cc3cc(Cl)c(Cl)cc3C2)c1 [Compound 286, 3-{3-[(5,6-dichloro-1,3-dihydro-2H-isoindol-2-yl)carbonyl]benzyl}-5,5-bis(4-fluorophenyl)-2-iminoimidazolidin-4-one] | 33.7 nM |
| N=C1NC(c2ccc(F)cc2)(c2ccc(F)cc2)C(=O)N1Cc1cccc(C(=O)N2CCC(n3c(=O)[nH]c4ncccc43)CC2)c1 [Compound 332, 1-{1-[(3-{[4,4-bis(4-fluorophenyl)-2-imino-5-oxoimidazolidin-1-yl]methyl}phenyl)carbonyl]piperidin-4-yl}-1,3-dihydro-2H-imidazo[4,5-b]pyridin-2-one] | 68 nM |
| COC(=O)N1CCN(C(=O)c2cc(CN3C(=N)NC(c4ccc(F)cc4)(c4ccc(F)cc4)C3=O)ccc2Cl)CC1 [Compound 381, methyl 4-[(5-{[4,4-bis(4-fluorophenyl)-2-imino-5-oxoimidazolidin-1-yl]methyl}-2-chlorophenyl)carbonyl] piperazine-1-carboxylate] | 12.4 nM |
| N=C1NC(c2ccc(F)cc2)(c2ccc(F)cc2)C(=O)N1Cc1cccc(C(=O)N2Cc3cnc(C(F)(F)F)nc3C2)c1 [Compound 211, 5,5-bis(4-fluorophenyl)-2-imino-3-(3-{[2-(trifluoromethyl)-5,7-dihydro-6H-pyrrolo[3,4-d]pyrimidin-6-yl]carbonyl}benzyl) imidazolidin-4-one] | 29.1 nM |
| COC(=O)N1CCN(C(=O)c2cccc(CN3C(=N)NC(CCC(C)C)(c4cccc(F)c4)C3=O)c2)CC1 (centres unmarked) [Compound 348, methyl 4-[(3-{[4-(3-fluorophenyl)-2-imino-4-(3-methylbutyl)-5-oxoimidazolidin-1-yl]methyl}phenyl)-carbonyl]piperazine-1-carboxylate] | 84.1 nM |
| N=C1NC(c2ccccc2)(c2ccccc2)C(=O)N1Cc1cccc(C(=O)N2Cc3cncnc3C2)c1 [Compound 310, 3-[3-(5,7-dihydro-6H-pyrrolo[3,4-d]pyrimidin-6-ylcarbonyl)benzyl]-2-imino-5,5-diphenylimidazolidin-4-one] | 51.7 nM |
| N=C1NC(c2ccccc2)(c2ccccc2)C(=O)N1Cc1cccc(C(=O)N2CCC(Oc3ccccc3)CC2)c1 [Compound 333, 2-imino-3-{3-[(4-phenoxypiperidin-1-yl)carbonyl]benzyl}-5,5-diphenylimidazolidin-4-one] | 69.6 nM |
| N=C1NC(c2ccc(F)cc2)(c2ccc(F)cc2)C(=O)N1Cc1cccc(C(=O)N2Cc3cncnc3C2)c1 [Compound 215, 3-[3-(5,7-dihydro-6H-pyrrolo[3,4-d]pyrimidin-6-ylcarbonyl)benzyl]-5,5-bis(4-fluorophenyl)-2-iminoimidazolidin-4-one] | 23 nM |
| COc1ccc(CN2C(=N)NC(c3ccccc3)(c3ccccc3)C2=O)cc1C(=O)N1Cc2cncnc2C1 [Compound 387, 3-[3-(5,7-dihydro-6H-pyrrolo[3,4-d]pyrimidin-6-ylcarbonyl)-4-methoxybenzyl]-2-imino-5,5-diphenylimidazolidin-4-one] | 32.2 nM |
| N=C1N[C@](CCCC(F)(F)F)(c2ccc(F)cc2)C(=O)N1Cc1ccc(C(F)(F)F)c(C(=O)N2CCN(c3ccccn3)CC2)c1 [Compound 99, (5R)-5-(4-fluorophenyl)-2-imino-3-{3-[(4-pyridin-2-ylpiperazin-1-yl)carbonyl]-4-(trifluoromethyl)-benzyl}-5-(4,4,4-trifluorobutyl)-imidazolidin-4-one] | 21.4 nM |
| N=C1N[C@](CCCC(F)(F)F)(c2ccc(F)cc2)C(=O)N1Cc1ccc(C(F)(F)F)c(C(=O)N2Cc3cnc(-c4ccncc4)nc3C2)c1 [Compound 53, (5R)-5-(4-fluorophenyl)-2-imino-3-{3-[(2-pyridin-4-yl-5,7-dihydro-6H-pyrrolo[3,4-d]pyrimidin-6-yl)carbonyl]-4-(trifluoromethyl)-benzyl}-5-(4,4,4-trifluorobutyl)-imidazolidin-4-one] | 5.63 nM |
| CC(C)CC[C@]1(c2ccc(F)cc2)NC(=N)N(C(CCCc2ccccc2)c2ccc(C(F)(F)F)c(C(=O)N3Cc4nccnc4C3)c2)C1=O (stereo partly drawn) [Compound 2, (5R)-3-{1-[3-(5,7-dihydro-6H-pyrrolo[3,4-b]pyrazin-6-ylcarbonyl)-4-(trifluoro-methyl)phenyl]-4-phenylbutyl}-5-(4-fluorophenyl)-2-imino-5-(3-methylbutyl)imidazolidin-4-one] | 0.14 nM |
| N=C1NC(c2ccccc2)(c2ccccc2)C(=O)N1Cc1cccc(C(=O)N2CCc3ccc(F)cc3C2)c1 [Compound 269, 3-{3-[(7-fluoro-3,4-dihydroisoquinolin-2(1H)-yl)carbonyl]benzyl}-2-imino-5,5-diphenylimidazolidin-4-one] | 26.9 nM |
| CCOC(=O)NC1CCN(C(=O)c2cccc(CN3C(=N)NC(c4ccccc4)(c4ccccc4)C3=O)c2)CC1 [Compound 355, ethyl [1-({3-[(2-imino-5-oxo-4,4-diphenylimidazolidin-1-yl)methyl]phenyl}carbonyl)piperidin-4-yl]carbamate] | 89.8 nM |
